# Measured values published in US20230374035A1, “RAS INHIBITORS” (Revolution Medicines, Inc., priority 2019, published 2023).
# Like-named read-outs stand apart in the source and are kept apart here.
# Columns and labels:
# [1] = ester bond, EDCl/HOBt/DIPEA, 25.0 °C, 16.0 h
# NRAS WT = NRAS WT (Homo sapiens, UniProt P01111+P62937); assay: Disruption of BRAF RBD interaction with Ras (FRET / MOA assay); type: biochemical
# Procedure: (§1) Compound is present in plate wells as a 10-point 3-fold dilution series starting at a final concentration of 30 μM. […] Compounds that facilitate disruption of a Ras:RAF complex are identified as those eliciting a decrease in the TR-FRET ratio relative to DMSO control wells.
# (§2) Note—The following protocol describes a procedure for monitoring disruption of K-Ras G12C (GMP-PNP) binding to BRAF^RBD by a compound of the invention. This protocol may also be executed substituting other Ras proteins or nucleotides.
# (§3) The purpose of this biochemical assay was to measure the ability of test compounds to facilitate ternary complex formation between a nucleotide-loaded K-Ras isoform and Cyclophilin A; the resulting ternary complex disrupts binding to a BRAF^RBD construct, inhibiting K-Ras signaling through a RAF effector. Data is reported as IC50 values.
# (§4) Compound was present in plate wells as a 10-point 3-fold dilution series starting at a final concentration of 30 μM. […] Compounds that facilitate disruption of a K-Ras:RAF complex were identified as those eliciting a decrease in the TR-FRET ratio relative to DMSO control wells.
# NRAS Q61K = NRAS Q61K (Homo sapiens, UniProt P01111+P62937, Q61K); assay: as above; type: biochemical
# Procedure: as §1, §2, §3, §4
# NRAS Q61R = NRAS Q61R (Homo sapiens, UniProt P01111+P62937, Q61R); assay: as above; type: biochemical
# Procedure: as §1, §2, §3, §4
# KRAS Q61H = KRAS Q61H (Homo sapiens, UniProt P01116+P62937, Q61H); assay: Disruption of BRAF RBD interaction with K-Ras (FRET / MOA assay); type: biochemical
# Procedure: as §1, §2, §3, §4
# KRAS G12C = KRAS G12C (Homo sapiens, UniProt P01116+P62937, G12C); assay: as above; type: biochemical
# Procedure: as §1, §2, §3, §4
# NCI-H358 (K-Ras G12C) = assay: CellTiter-Glo Cell Viability Assay; type: cell-based; settings: Homo sapiens, NCI-H358, 120 h; H358, 5-day treatment
# Procedure: Determination of Cell Viability in RAS Mutant Cancer Cell Lines
# Protocol: CellTiter-Glo® Cell Viability Assay
# Note—The following protocol describes a procedure for monitoring cell viability of K-Ras mutant cancer cell lines in response to a compound of the invention. Other RAS isoforms may be employed, though the number of cells to be seeded will vary based on cell line used.
# Test compounds (132.5 nl) were directly dispensed into the assay plates containing cells. […] On day 5, assay plates and their contents were equilibrated to room temperature for approximately 30 minutes. […] Luminescence was measured using the PerkinElmer Enspire. Data were normalized by the following: (Sample signal/Avg. DMSO)*100. The data were fit using a four-parameter logistic fit.
# [2] = read-out: NRAS WT FRET data IC50
# [3] = read-out: NRAS Q61K FRET data IC50
# [4] = read-out: NRAS Q61R FRET data IC50
# [5] = read-out: KRAS Q61H FRET data IC50
# [6] = read-out: KRAS G12C FRET data IC50
# Chain of NRAS WT (P01111 whole entry): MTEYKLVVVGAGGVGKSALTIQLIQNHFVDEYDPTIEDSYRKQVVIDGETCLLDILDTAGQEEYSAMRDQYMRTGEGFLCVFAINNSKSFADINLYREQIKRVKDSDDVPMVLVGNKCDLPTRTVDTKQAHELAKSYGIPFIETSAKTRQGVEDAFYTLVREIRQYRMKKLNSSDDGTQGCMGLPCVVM
# Chain of NRAS WT (P62937 whole entry): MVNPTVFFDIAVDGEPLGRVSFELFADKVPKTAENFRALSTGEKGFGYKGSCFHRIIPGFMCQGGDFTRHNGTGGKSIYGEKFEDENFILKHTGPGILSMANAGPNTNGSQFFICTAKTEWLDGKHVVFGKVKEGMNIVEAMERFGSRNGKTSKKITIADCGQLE
# Chain of KRAS Q61H (P01116 1-188 isoform P01116-2 Q61H): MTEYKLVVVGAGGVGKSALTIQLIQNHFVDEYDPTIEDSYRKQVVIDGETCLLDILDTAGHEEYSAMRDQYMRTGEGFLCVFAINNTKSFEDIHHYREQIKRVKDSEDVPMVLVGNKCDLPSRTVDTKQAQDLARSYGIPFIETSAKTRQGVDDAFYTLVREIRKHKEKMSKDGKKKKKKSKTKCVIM
# Chain of KRAS Q61H (P62937 whole entry): as the sequence (P62937 whole entry) above
# Chain of KRAS G12C (P01116 1-188 isoform P01116-2 G12C): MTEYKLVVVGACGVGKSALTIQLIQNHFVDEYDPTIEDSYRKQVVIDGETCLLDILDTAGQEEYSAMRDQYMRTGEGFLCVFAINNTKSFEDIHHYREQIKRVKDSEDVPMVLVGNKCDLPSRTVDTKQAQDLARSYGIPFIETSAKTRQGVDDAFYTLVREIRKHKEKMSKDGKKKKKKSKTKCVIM
# Chain of KRAS G12C (P62937 whole entry): as the sequence (P62937 whole entry) above
# Chain of NRAS Q61R (P01111 whole entry Q61R): as the sequence (P01111 whole entry) above, with Q61R counted along it
# Chain of NRAS Q61R (P62937 whole entry): as the sequence (P62937 whole entry) above
# Chain of NRAS Q61K (P01111 whole entry Q61K): as the sequence (P01111 whole entry) above, with Q61K counted along it
# Chain of NRAS Q61K (P62937 whole entry): as the sequence (P62937 whole entry) above
Structure (SMILES),IC50 (NRAS Q61K; [3]),IC50 (NRAS Q61R; [4]),IC50 (KRAS Q61H; [5]),IC50 (KRAS G12C; [6]),further results
CC(C)[Si](Oc1cc2cc(c1)-c1ccc3[nH]c(I)c(c3c1)CC(C)(C)COC(=O)[C@@H]1CCCN(N1)C(=O)[C@@H](NC(=O)OC(C)(C)C)C2)(C(C)C)C(C)C,–,–,–,–,"ring closure, yield of all isomers ([1]; from CC(C)[Si](Oc1cc(C[C@H](NC(=O)OC(C)(C)C)C(=O)N2CCC[C@@H](C(=O)O)N2)cc(-c2ccc3[nH]c(I)c(CC(C)(C)CO)c3c2)c1)(C(C)C)C(C)C, DCM, 22.8 mM): 50%"
CCn1c(-c2cc(N3CCN(C(=O)OCc4ccccc4)CC3)cnc2[C@H](C)OC)c2c3cc(ccc31)-c1csc(n1)C[C@H](NC(=O)OC(C)(C)C)C(=O)N1CCC[C@H](N1)C(=O)OCC(C)(C)C2,–,–,–,–,"ring closure, yield of all isomers ([1]; from CCn1c(-c2cc(N3CCN(C(=O)OCc4ccccc4)CC3)cnc2[C@H](C)OC)c(CC(C)(C)CO)c2cc(-c3csc(C[C@H](NC(=O)OC(C)(C)C)C(=O)N4CCC[C@@H](C(=O)O)N4)n3)ccc21, MeCN, 10.34 mM): 54.8%"
"CO[C@@H](C)c1ncccc1-c1c2c3cc(ccc3n1CC(F)(F)F)-c1csc(n1)C[C@H](NC(=O)[C@H](C(C)C)N(C)C(=O)N1CC(N(C)C)C1)C(=O)N1CCC[C@H](N1)C(=O)OCC(C)(C)C2 (atropisomer, axis not shown) [Compound A328]",> 10000 nM,> 10 µM,> 10 µM,> 10 µM,IC50 (NRAS WT; [2]): > 10 µM
"CCn1c(-c2cc(N3CCN(C)CC3)cnc2[C@H](C)OC)c2c3cc(ccc31)-c1csc(n1)C[C@H](NC(=O)[C@H](C(C)C)N(C)C(=O)N1CC(OC)C1)C(=O)N1CCC[C@H](N1)C(=O)OCC(C)(C)C2 (atropisomer, axis not shown) [Compound A466]",10 to 100 nM,0.01 to 0.1 µM,–,–,IC50 (NCI-H358 (K-Ras G12C)): < 10 nM
"CCn1c(-c2cccnc2[C@H](C)OC)c2c3cc(ccc31)-c1csc(n1)C[C@H](NC(=O)[C@H](C(C)C)N(C)C(=O)N1CC(Cc3cnn(C)c3)C1)C(=O)N1CCC[C@H](N1)C(=O)OCC(C)(C)C2 (atropisomer, axis not shown) [Compound A500]",10 to 100 nM,0.01 to 0.1 µM,–,–,IC50 (NCI-H358 (K-Ras G12C)): < 10 nM
"CCn1c(-c2cccnc2[C@H](C)OC)c2c3cc(ccc31)-c1csc(n1)C[C@H](NC(=O)[C@H](C(C)C)N(C)C(=O)N1C[C@@H]3CCN(C)C[C@@H]31)C(=O)N1CCC[C@H](N1)C(=O)OCC(C)(C)C2 (atropisomer, axis not shown) [Compound A516]",–,–,1 to 10 µM,–,–
"CCn1c(-c2cccnc2[C@H](C)OC)c2c3cc(ccc31)-c1csc(n1)C[C@H](NC(=O)[C@H](C(C)C)N(C)C(=O)N1C[C@H]3CCN(C)C[C@H]31)C(=O)N1CCC[C@H](N1)C(=O)OCC(C)(C)C2 (atropisomer, axis not shown) [Compound A517]",–,–,1 to 10 µM,–,–
"CCn1c(-c2cccnc2[C@H](C)OC)c2c3cc(ccc31)-c1csc(n1)C[C@H](NC(=O)[C@H](C(C)C)N(C)C(=O)N1CCN3C(=O)CN(C)C[C@@H]3C1)C(=O)N1CCC[C@H](N1)C(=O)OCC(C)(C)C2 (atropisomer, axis not shown) [Compound A536]",10 to 100 nM,0.01 to 0.1 µM,–,–,IC50 (NCI-H358 (K-Ras G12C)): < 10 nM
"CCn1c(-c2cccnc2[C@H](C)OC)c2c3cc(ccc31)-c1csc(n1)C[C@H](NC(=O)[C@H](C(C)C)N(C)C(=O)N1CCC3(COC3)C1)C(=O)N1CCC[C@H](N1)C(=O)OCC(C)(C)C2 (atropisomer, axis not shown) [Compound A561]",10 to 100 nM,0.01 to 0.1 µM,–,–,IC50 (NCI-H358 (K-Ras G12C)): < 10 nM
CO[C@@H](C)c1ncccc1-c1c2c3cc(ccc3n1C)-c1cc(O)cc(c1)C[C@H](NC(=O)[C@H](C(C)C)N(C)C(C)=O)C(=O)N1CCC[C@H](N1)C(=O)OCC(C)(C)C2 (racemic) [Compound A104],–,> 10 µM,1 to 10 µM,–,–
CCn1c(-c2cccnc2[C@H](C)OC)c2c3cc(ccc31)-c1cc(cc(NC(C)=O)c1)C[C@H](NC(=O)[C@H](C(C)C)N(C)C(C)=O)C(=O)N1CCC[C@H](N1)C(=O)OCC(C)(C)C2 (racemic) [Compound A145],–,–,–,–,IC50 (NRAS WT): > 10 µM; IC50 (NRAS Q61K): > 10000 nM; IC50 (NRAS Q61R): > 10 µM; IC50 (KRAS Q61H): 1 to 10 µM; IC50 (KRAS G12C): > 10 µM
CCn1c(-c2cccnc2[C@H](C)OC)c2c3cc(ccc31)-c1cc(O)cc(c1)C[C@H](NC(=O)[C@H](C(C)C)N(C)C(=O)C1(C(=O)O)CC1)C(=O)N1CCC[C@H](N1)C(=O)OCC(C)(C)C2 (racemic) [Compound A150],–,> 10 µM,1 to 10 µM,–,–
CCn1c(-c2cccnc2[C@H](C)OC)c2c3cc(ccc31)-c1cc(cc3nc[nH]c13)C[C@H](NC(=O)[C@H](C(C)C)N(C)C(C)=O)C(=O)N1CCC[C@H](N1)C(=O)OCC(C)(C)C2 (racemic) [Compound A153],–,–,–,> 10 µM,–
CCn1c(-c2cccnc2[C@H](C)OC)c2c3cc(ccc31)-c1cc(cc(S(C)(=O)=O)c1)C[C@H](NC(=O)[C@H](C(C)C)N(C)C(C)=O)C(=O)N1CCC[C@H](N1)C(=O)OCC(C)(C)C2 (racemic) [Compound A154],> 10000 nM,> 10 µM,> 10 µM,> 10 µM,IC50 (NRAS WT; [2]): > 10 µM
CCn1c(-c2cccnc2[C@H](C)OC)c2c3cc(ccc31)-c1cc(O)cc(c1)C[C@H](NS(=O)(=O)CC#N)C(=O)N1CCC[C@H](N1)C(=O)OCC(C)(C)C2 (racemic) [Compound A186],> 10000 nM,–,> 10 µM,–,IC50 (NRAS WT; [2]): > 10 µM; IC50 (NRAS Q61R): > 10 µM; IC50 (KRAS G12C): > 10 µM
CCn1c(-c2cccnc2[C@H](C)OC)c2c3cc(ccc31)-c1cc(O)cc(c1)C[C@H](NS(=O)(=O)N1CCC1)C(=O)N1CCC[C@H](N1)C(=O)OCC(C)(C)C2 (racemic) [Compound A189],> 10000 nM,> 10 µM,> 10 µM,> 10 µM,IC50 (NRAS WT; [2]): > 10 µM
CCn1c(-c2cccnc2[C@H](C)OC)c2c3cc(ccc31)-c1cc(O)cc(c1)C[C@H](NS(=O)(=O)C1CS(=O)(=O)C1)C(=O)N1CCC[C@H](N1)C(=O)OCC(C)(C)C2 (racemic) [Compound A191],> 10000 nM,> 10 µM,> 10 µM,> 10 µM,IC50 (NRAS WT; [2]): > 10 µM
CCn1c(-c2cccnc2[C@H](C)OC)c2c3cc(ccc31)-c1cc(O)cc(c1)C[C@H](NS(=O)(=O)N1CCOCC1)C(=O)N1CCC[C@H](N1)C(=O)OCC(C)(C)C2 (racemic) [Compound A194],–,–,–,–,IC50 (KRAS G12C): > 10 µM
CCn1c(-c2cccnc2[C@H](C)OC)c2c3cc(ccc31)-c1cc(O)cc(c1)C[C@H](NS(=O)(=O)c1ccc(O)cc1)C(=O)N1CCC[C@H](N1)C(=O)OCC(C)(C)C2 (racemic) [Compound A195],–,–,–,> 10 µM,–
CCn1c(-c2cccnc2[C@H](C)OC)c2c3cc(ccc31)-c1cc(O)cc(c1)C[C@H](NS(=O)(=O)C1CC1)C(=O)N1CCC[C@H](N1)C(=O)OCC(C)(C)C2 (racemic) [Compound A196],–,–,–,> 10 µM,–
CCn1c(-c2cccnc2[C@H](C)OC)c2c3cc(ccc31)-c1cc(O)cc(c1)C[C@H](NS(=O)(=O)c1cn(C)c(C)n1)C(=O)N1CCC[C@H](N1)C(=O)OCC(C)(C)C2 (racemic) [Compound A197],–,–,–,> 10 µM,–
CCn1c(-c2cccnc2[C@H](C)OC)c2c3cc(ccc31)-c1cc(O)cc(c1)C[C@H](NS(=O)(=O)c1ccc(OC)cc1OC)C(=O)N1CCC[C@H](N1)C(=O)OCC(C)(C)C2 (racemic) [Compound A198],–,–,–,–,IC50 (KRAS G12C): > 10 µM
CCn1c(-c2cccnc2[C@H](C)OC)c2c3cc(ccc31)-c1cc(O)cc(c1)C[C@H](NS(=O)(=O)CC1CC1)C(=O)N1CCC[C@H](N1)C(=O)OCC(C)(C)C2 (racemic) [Compound A200],–,–,–,> 10 µM,–
CCn1c(-c2cccnc2[C@H](C)OC)c2c3cc(ccc31)-c1csc(n1)C[C@H](NC(=O)[C@H](C(C)C)N1CCC3(CN(S(C)(=O)=O)C3)C1=O)C(=O)N1CCC[C@H](N1)C(=O)OCC(C)(C)C2 (racemic) [Compound A234],–,> 10 µM,1 to 10 µM,> 10 µM,–
CCn1c(-c2cccnc2[C@H](C)OC)c2c3cc(ccc31)-c1csc(n1)C[C@H](NC(=O)[C@H](C(C)C)N1CCC3(CN(C(=O)OC)C3)C1=O)C(=O)N1CCC[C@H](N1)C(=O)OCC(C)(C)C2 (racemic) [Compound A235],–,–,–,–,IC50 (KRAS G12C): > 10 µM
CCn1c(-c2cccnc2[C@H](C)OC)c2c3cc(ccc31)-c1csc(n1)C[C@H](NC(=O)[C@H](C(C)C)N(C)C(=O)[C@H]1CCN(S(C)(=O)=O)C1)C(=O)N1CCC[C@H](N1)C(=O)OCC(C)(C)C2 (racemic) [Compound A237],–,–,1 to 10 µM,–,–
